Series [1] has as its target estrogen related receptor alpha (ERRα) (Homo sapiens, UniProt P11474). To be noted: FIG. 5. An excerpt: [drawing 18] on the degradation of estrogen related receptor alpha (ERRα).
The subject of the next series is THP-1 cells. Kind of series: Trypan Blue cell viability assay. It is filed as cell-based. To be noted: 16 hours. The method, then: FIG. 13 is a cell viability graph illustrating that PROTAC_RIPK2 is not toxic to cells. THP-1 cells were treated with the indicated concentration sof PROTAC_RIPK2 or PROTAC_RIPK2_epi for 16 hours, followed by a Trypan Blue assay to determine cell viability. Error bars represent mean and S.D.

The next series has as its target RIPK2 (Homo sapiens, UniProt O43353). Kind of series: In vitro RIPK2 ubiquitination, reconstituted ubiquitination cascade. To be noted: quenched 15 min after initiation, PAGE and autoradiography. Type of series: biochemical. The method, then:
Ubiquitination reactions were performed in three stages. In the first stage, RIPK2 (final 500 nM) was incubated for 10 min at room temperature with [^32P]g-ATP in kinase buffer (25 mM Tris pH 7.5, 50 mM KCl, 2 mM Mg(CH3CO2)2, 2 mM MnCl2, 2 mM DTT) to radiolabel RIPK2 through auto-phosphorylation. In the second stage, ubiquitination buffer (25 mM Tris pH 7.5, 5 mM MgCl2, 100 mM NaCl, 2 mM ATP, 0.1 mg/ml BSA, and 2 mM DTT) was added to complete auto-phosphorylation, and then VHL (final 250 nM) and indicated PROTACs (various concentrations) were added to the mixture to allow ternary complex formation. In parallel, UbE1 (final 25 nM), Ubc4 (final 250 nM), and ubiquitin (final 116 μM) were mixed in ubiquitination buffer to allow charging of the E2 enzyme with activated ubiquitin. In stage three of the reaction, the RIPK2-PROTAC-VHL and UbE1-Ubc4˜Ub mixtures were combined, and incubated at room temperature for various times before being quenched with Sample Buffer containing 5% b-mercaptoethanol. Ubiquitinated RIPK2 was then separated by 4-15% SDS-PAGE and imaged using a PhosphoImager Screen overnight.
RIPK2 was labeled by autophosphorylation and then incubated with the indicated concentrations of PROTAC and the reconstituted ubiquitination cascade. Samples were quenched 15 min after initiation of the reaction, and imaged by PAGE and autoradiography. RIPK2-Ubn is indicated.

A further series concerns the target VHL (Homo sapiens, UniProt P40337). Kind of series: VHL binding (stereocenter inversion). Particulars: inversion of stereocenter(s) of the VHL ligand.
The next series addresses T1, ERRα (Homo sapiens, UniProt P11474).
T1 sequence (P11474 1-423): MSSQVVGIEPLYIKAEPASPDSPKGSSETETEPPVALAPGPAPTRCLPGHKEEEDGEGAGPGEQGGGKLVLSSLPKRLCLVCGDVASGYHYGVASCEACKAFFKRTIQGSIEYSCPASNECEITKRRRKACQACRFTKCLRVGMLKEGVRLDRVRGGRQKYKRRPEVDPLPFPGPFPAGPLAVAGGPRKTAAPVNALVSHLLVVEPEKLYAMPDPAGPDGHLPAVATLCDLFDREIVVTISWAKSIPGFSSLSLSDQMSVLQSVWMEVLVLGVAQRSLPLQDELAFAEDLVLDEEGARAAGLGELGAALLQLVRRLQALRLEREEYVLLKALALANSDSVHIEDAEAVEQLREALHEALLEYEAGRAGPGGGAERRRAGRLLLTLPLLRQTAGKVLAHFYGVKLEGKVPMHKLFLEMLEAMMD
Kind of series: ERRα degradation in ST-486 cells. It is filed as cell-based. More on the design: degration of ERRα in either MCF-7 cells or ST-486 cells; endogenous in cells; host or cells: ST-486. Particulars: ST486, column C, read-out: ERRα Degradation Dmax (Estimated) ST-486 cells. The method, then:
Using the methods as described herein, the following exemplary PROTAC compounds were prepared (see Table below). The exemplary compounds were also assayed for their ability to effectuate the degration of ERRα in either MCF-7 cells or ST-486 cells. Thus, in certain embodiments, the description provides the compounds below, including compositions comprising effective amount of a compound as listed below or a derivative, analog, or a prodrug of the same, in combination with at least one of a pharmaceutically acceptable carrier, another active agent, including a second PROTAC molecule as described herein or a combination thereof. In additional embodiments, the disclosure provides a method of treating a disease or condition in a subject in need thereof, comprising administering a composition comprising an effective amount of a compound listed below, wherein the composition is effective for treating or ameliorating a symptom of the disease or condition.
Legend for following table: A=ERRα Degradation Dmax (Estimated) MCF-7 cells; B=ERRα Degradation DC50 (Estimated) MCF-7 cells; C=ERRα Degradation Dmax (Estimated) ST-486 cells; D=ERRα Degradation DC50 (Estimated) ST-486 cells

RIPK2, sequence (O43353 whole entry, species assumed): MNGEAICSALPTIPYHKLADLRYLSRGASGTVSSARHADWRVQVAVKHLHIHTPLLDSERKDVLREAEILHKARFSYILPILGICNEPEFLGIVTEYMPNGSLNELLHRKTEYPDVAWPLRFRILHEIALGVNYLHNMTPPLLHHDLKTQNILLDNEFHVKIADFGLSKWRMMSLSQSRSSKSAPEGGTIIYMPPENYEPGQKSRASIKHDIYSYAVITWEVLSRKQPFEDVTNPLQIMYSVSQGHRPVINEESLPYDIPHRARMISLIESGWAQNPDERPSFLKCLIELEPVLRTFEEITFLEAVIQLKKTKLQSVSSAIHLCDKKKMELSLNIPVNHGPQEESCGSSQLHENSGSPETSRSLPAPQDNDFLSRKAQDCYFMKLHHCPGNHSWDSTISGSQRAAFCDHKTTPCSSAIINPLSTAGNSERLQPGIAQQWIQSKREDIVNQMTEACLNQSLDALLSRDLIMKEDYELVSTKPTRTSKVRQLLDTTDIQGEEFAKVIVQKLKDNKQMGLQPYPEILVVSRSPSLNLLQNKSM
RIPK2, sequence (P40337 whole entry, species assumed, further chain): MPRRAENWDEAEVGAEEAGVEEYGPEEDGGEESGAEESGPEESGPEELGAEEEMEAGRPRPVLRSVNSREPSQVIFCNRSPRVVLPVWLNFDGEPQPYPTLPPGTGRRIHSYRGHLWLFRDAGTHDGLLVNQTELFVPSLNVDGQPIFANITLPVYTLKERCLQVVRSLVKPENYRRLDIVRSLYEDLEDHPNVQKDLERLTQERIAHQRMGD
RIPK2, sequence (Q15370 whole entry partner, species assumed): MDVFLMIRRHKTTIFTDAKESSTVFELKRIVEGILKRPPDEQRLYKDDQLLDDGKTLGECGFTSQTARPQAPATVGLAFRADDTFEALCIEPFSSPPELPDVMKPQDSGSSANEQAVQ
RIPK2, sequence (Q15369 whole entry partner, species assumed): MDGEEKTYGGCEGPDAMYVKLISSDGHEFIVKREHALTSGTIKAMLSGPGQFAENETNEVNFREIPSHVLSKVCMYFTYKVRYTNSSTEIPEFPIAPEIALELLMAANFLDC
RIPK2, sequence (Q13617 whole entry partner, species assumed): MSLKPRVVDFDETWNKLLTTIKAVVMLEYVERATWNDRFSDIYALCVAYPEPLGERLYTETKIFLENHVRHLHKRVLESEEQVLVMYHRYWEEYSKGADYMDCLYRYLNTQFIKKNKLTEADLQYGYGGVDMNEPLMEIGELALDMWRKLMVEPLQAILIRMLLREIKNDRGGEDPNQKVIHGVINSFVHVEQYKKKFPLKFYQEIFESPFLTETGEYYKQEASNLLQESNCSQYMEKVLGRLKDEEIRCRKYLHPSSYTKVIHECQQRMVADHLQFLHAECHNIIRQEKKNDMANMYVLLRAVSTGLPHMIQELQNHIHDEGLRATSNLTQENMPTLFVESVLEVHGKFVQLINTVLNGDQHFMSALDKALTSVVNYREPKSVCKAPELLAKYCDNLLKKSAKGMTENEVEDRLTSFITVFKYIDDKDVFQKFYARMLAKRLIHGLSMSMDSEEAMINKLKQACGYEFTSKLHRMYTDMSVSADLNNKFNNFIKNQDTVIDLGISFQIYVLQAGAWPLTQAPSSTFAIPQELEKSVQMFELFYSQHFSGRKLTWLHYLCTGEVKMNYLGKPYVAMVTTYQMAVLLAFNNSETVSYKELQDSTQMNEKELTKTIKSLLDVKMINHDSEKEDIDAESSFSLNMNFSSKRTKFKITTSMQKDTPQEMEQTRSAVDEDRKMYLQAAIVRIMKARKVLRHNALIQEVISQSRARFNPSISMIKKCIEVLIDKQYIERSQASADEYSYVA
RIPK2, sequence (P62877 whole entry partner, species assumed): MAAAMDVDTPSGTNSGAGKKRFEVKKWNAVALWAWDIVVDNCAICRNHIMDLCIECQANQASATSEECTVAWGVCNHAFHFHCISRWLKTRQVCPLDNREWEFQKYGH
VHL, sequence (P40337 whole entry, species assumed): as the sequence (P40337 whole entry, species assumed, further chain) above
VHL, sequence (Q15370 whole entry partner, species assumed): as the sequence (Q15370 whole entry partner, species assumed) above
VHL, sequence (Q15369 whole entry partner, species assumed): as the sequence (Q15369 whole entry partner, species assumed) above

In the case of `COc1cc(/C=C2\SC(=O)NC2=O)ccc1Oc1ccc(C#N)cc1C(F)(F)F`, the “effect on the degradation of estrogen related receptor alpha (ERRα)” value in series [1] is listed as “lack of effect”.
Turning to `Cc1ncsc1-c1ccc(CNC(=O)[C@@H]2C[C@@H](O)CN2C(=O)[C@@H](NC(=O)COCCOCCOCCOCCOc2cc3nccc(Nc4ccc5scnc5c4)c3cc2S(=O)(=O)C(C)(C)C)C(C)(C)C)cc1` [PROTAC_RIPK2], the “cell viability (toxicity to cells)” value in the series with THP-1 cells is “not toxic”. The “direct RIPK2 ubiquitination in vitro” value at RIPK2 is given as “mediates direct RIPK2 ubiquitination”.
Consider `COc1cc(/C=C2\SC(=O)N(CCOCCC(=O)N[C@H](C(=O)N3C[C@@H](O)C[C@H]3C(=O)NCc3ccc(-c4scnc4C)cc3)C(C)(C)C)C2=O)ccc1Oc1ccc(C#N)cc1C(F)(F)F` [PROTAC_ERRα_epi], for which the VHL binding result on VHL is recorded as “abolishes VHL binding”.
For orientation: Dmax means the largest share of the target that was removed. Take `COc1cc(/C=C2\SC(=O)N(CCOCCOCCCCOCCOCCOCC(=O)N[C@H](C(=O)N3C[C@H](O)C[C@H]3C(=O)NCc3ccc(-c4scnc4C)cc3)C(C)(C)C)C2=O)ccc1Oc1ccc(C#N)cc1C(F)(F)F` [ARV N000244]: the maximal degradation (Dmax) on ERRα was 80%.
In the case of `COc1cc(/C=C2\SC(=O)N(Cc3ccccc3CC(=O)N[C@H](C(=O)N3C[C@H](O)C[C@H]3C(=O)NCc3ccc(-c4scnc4C)cc3)C(C)(C)C)C2=O)ccc1Oc1ccc(C#N)cc1C(F)(F)F` [ARV N000381], the Dmax on ERRα was 98%.

These data come from patent publication US10071164B2, “Estrogen-related receptor alpha based protac compounds and associated methods of use” (Yale University, priority 2014, dated 2018).
